Assay results: patent US20260042764A1, “COMPOSITIONS AND METHODS FOR INHIBITION OF KRAS” (TheRas, Inc., priority 2022, published 2026)
Where two headings read alike, the source gives them in different places.

Legend:
AsPC-1 cells (KRAS G12D) = experiment: Cell-based pERK HTRF assay in AsPC-1 cells (Biological Example 5)
Method: (§1) Biological Example 5: Cell-based PERK HTRF assay in AsPC-1, SW1900, HPAC, Capan-2, RKN, H358, HCT116, KP-2, H1573, A549, MKN1, and HT1080 cells
(§2) The inhibition of ERK phosphorylation, as measured using the HTRF Advanced Phospho-ERK 1/2 (Thr202/Tyr204) Detection Assay kit (Perkin Elmer), was used to determine the effectiveness of test compounds in disrupting KRAS-driven protein/effector signaling in cells.
(§3) On day 1, cells were seeded into 96-well plates at 2.5×10^4 cells/well in 100 μL of complete growth media supplemented with 10% fetal bovine serum (FBS) and incubated at 37° C., in the presence of 5% CO2.
(§4) On day 2, cells were treated with compounds diluted in DMSO at 0.25% final DMSO concentration. Compounds were dosed in a 9-point concentration curve with three-fold dilution between concentrations. Cells were incubated in the presence of compound for two hours at 37° C. Following this treatment period, cells were harvested by aspirating the media, adding 40 μL of kit-supplied 1x lysis buffer per well, and shaking for 30 minutes at 250 rpm at room temperature.
(§5) Following cell lysis, samples were homogenized by pipetting up and down twenty times and 16 μL of cell lysate per well was transferred from the 96-well cell culture plate to two wells of a 384-well detection plate. A complete detection buffer was prepared by diluting D2 and Eu Cryptate antibodies 1:20 in kit-provided detection solution, 4 μL of complete detection buffer was then added to each well with lysate. Plates were incubated with gentle rocking for 24 hours at 4° C.
(§6) Following this incubation period, plates were centrifuged at 500×g for one minute and analyzed on a CLARIOstar plate reader. Data was imported into Microsoft Excel and the signal from the 665 nm channel was divided by the signal from the 620 nm channel. % pERK was calculated as: […]
(§7) Data was imported to the Prism software package (Graphpad) and EC50 values were calculated using the log (inhibitor) vs, response—variable slopc (Four parameters) model.

HCT116 cells (KRAS G13D) = experiment: Cell-based pERK HTRF assay in HCT116 cells (Biological Example 5)
Method: as §1, §2, §3, §4, §5, §6, §7

KP-2 cells (KRAS G12R) [1] = experiment: Cell-based pERK HTRF assay in KP-2 cells (Biological Example 5); settings: KP-2 (KRAS G12R) cells
Method: as §1, §2, §3, §4, §5, §6, §7

H1573 cells (KRAS G12A) [2] = experiment: Cell-based pERK HTRF assay in H1573 cells (Biological Example 5)
Method: as §1, §2, §3, §4, §5, §6, §7

KP-2 cells (KRAS G12R) [3] = experiment: 3D Cell viability assay in KP-2 cells (Biological Example 6); format: cell-based; settings: KP-2 (KRAS G12R) spheroids, 72 hours
Method: (§8) Biological Example 6: 3D Cell viability assay in AsPC-1, SW1900, HPAC, Capan-2, RKN, H358, HCT116, KP-2, H1573, A549, MKN1, and HT1080 cells
(§9) The inhibition of cellular viability as a result of test compound treatment in a spheroid assay was measured using the CellTiter-Glow 3D Cell Viability Assay (Promega).
(§10) On Day 1, 1000 cells per well were seeded in 150 μL of complete growth media supplemented with 10% fetal bovine serum (FBS) and incubated at 37° C., in the presence of 5% CO2 in 96-well ultra-low attachment microplates (Corning) for 48 hours undisturbed to allow spheroids to form.
(§11) Following spheroid formation, cells were treated with compounds diluted in DMSO at 0.25% final DMSO concentration. Compounds were dosed in a 9-point concentration curve with three-fold dilution between concentrations. Cells were incubated in the presence of compound for 72 hours at 37° C., in the presence of 5% CO2.
(§12) Following this incubation period, the kit-provided CTG reagent was allowed to equilibrate for 30 minutes at room temperature, 150 μL of equilibrated CTG reagent was added to each well, and the plate was sealed before shaking at 250 rpm for 10 minutes at room temperature to lyse the cells, 150 μL of lysate per well was transferred to a 96-well plate and luminescence was read on a CLARIOstar plate reader.
(§13) Data was imported into the Prism software package (Graphpad) and EC50 values were calculated using the log (inhibitor) vs, response—variable slope (Four parameters) model.

H1573 cells (KRAS G12A) [4] = experiment: 3D Cell viability assay in H1573 cells (Biological Example 6); format: cell-based; settings: H1573 (KRAS G12A) spheroids, 72 hours
Method: as §8, §9, §10, §11, §12, §13

A549 cells (KRAS G12S) = experiment: 3D Cell viability assay in A549 cells (Biological Example 6); format: cell-based; settings: A549 (KRAS G12S) spheroids, 72 hours
Method: as §8, §9, §10, §11, §12, §13

HT1080 cells (NRAS) = experiment: 3D Cell viability assay in HT1080 cells (Biological Example 6); format: cell-based; settings: HT1080 (NRAS) spheroids, 72 hours
Method: as §8, §9, §10, §11, §12, §13

[5] = Homo sapiens, ASPC1, AsPC-1 (KRAS G12D) cells

In the case of CCN(c1nc(OC[C@@]23CCCN2C[C@H](F)C3)nc2c(F)c(-c3ccc(F)c4sc(N)c(C#N)c34)c(C(F)(F)F)cc12)[C@H]1CCN(C(C)=O)C1 [Compound 262], the IC50 (AsPC-1 cells (KRAS G12D); [5]) is reported as 100 to 1000 nM, the IC50 (HCT116 cells (KRAS G13D); Homo sapiens, HCT-116) is reported as ≤ 100 nM and the IC50 (KP-2 cells (KRAS G12R) [1]) is reported as ≤ 100 nM. The IC50 (H1573 cells (KRAS G12A) [2]; Homo sapiens, NCI-H1573) was ≤ 100 nM, the IC50 (KP-2 cells (KRAS G12R) [3]) was 100 to 1000 nM and the IC50 (H1573 cells (KRAS G12A) [4]; Homo sapiens, NCI-H1573) was ≤ 100 nM. The IC50 (A549 cells (KRAS G12S); Homo sapiens) was ≤ 100 nM and the IC50 (HT1080 cells (NRAS); Homo sapiens, HT-1080) was > 1000 nM.

N#Cc1c(N)sc2c(F)ccc(-c3c(C(F)(F)F)cc4c(N5CC6CC5CO6)nc(OC[C@@]56CCCN5C[C@H](F)C6)nc4c3F)c12 (some centres unmarked) [Compound 147] was tested, and the IC50 (H1573 cells (KRAS G12A) [4]; Homo sapiens, NCI-H1573) was ≤ 100 nM, the IC50 (A549 cells (KRAS G12S); Homo sapiens) was ≤ 100 nM and the IC50 (HT1080 cells (NRAS); Homo sapiens, HT-1080) was > 1000 nM.

N#Cc1c(N)sc2c(F)ccc(-c3c(C(F)(F)F)cc4c(N5CCOCC5)nc(OC[C@@]56CCCN5C[C@H](F)C6)nc4c3F)c12 (single isomer, unassigned) [Compound 198] was tested, and the IC50 (HCT116 cells (KRAS G13D); Homo sapiens, HCT-116) was ≤ 100 nM, the IC50 (H1573 cells (KRAS G12A) [2]; Homo sapiens, NCI-H1573) was ≤ 100 nM and the IC50 (H1573 cells (KRAS G12A) [4]; Homo sapiens, NCI-H1573) was ≤ 100 nM. The IC50 (A549 cells (KRAS G12S); Homo sapiens) was ≤ 100 nM and the IC50 (HT1080 cells (NRAS); Homo sapiens, HT-1080) was > 1000 nM.

N#Cc1cnn2c1CN(c1nc(OC[C@@]34CCCN3C[C@H](F)C4)nc3c(F)c(-c4ccc(F)c5sc(N)c(C#N)c45)c(C(F)(F)F)cc13)CC2 [Compound 392] was tested, and the IC50 (AsPC-1 cells (KRAS G12D); [5]) was > 1000 nM, the IC50 (HCT116 cells (KRAS G13D); Homo sapiens, HCT-116) was ≤ 100 nM and the IC50 (KP-2 cells (KRAS G12R) [1]) was 100 to 1000 nM. It also gave an IC50 (H1573 cells (KRAS G12A) [2]; Homo sapiens, NCI-H1573) of 100 to 1000 nM, an IC50 (KP-2 cells (KRAS G12R) [3]) of 100 to 1000 nM and an IC50 (H1573 cells (KRAS G12A) [4]; Homo sapiens, NCI-H1573) of 100 to 1000 nM. The IC50 (A549 cells (KRAS G12S); Homo sapiens) was 100 to 1000 nM and the IC50 (HT1080 cells (NRAS); Homo sapiens, HT-1080) was > 1000 nM.

With N#Cc1c(N)sc2c(F)ccc(-c3c(C(F)(F)F)cc4c(N5CC6CC(C5)O6)nc(OC[C@@]56CCCN5C[C@H](F)C6)nc4c3F)c12 (single isomer, unassigned) [Compound 275] the IC50 (AsPC-1 cells (KRAS G12D); [5]) was 100 to 1000 nM, the IC50 (HCT116 cells (KRAS G13D); Homo sapiens, HCT-116) was ≤ 100 nM and the IC50 (KP-2 cells (KRAS G12R) [1]) was 100 to 1000 nM. The IC50 (H1573 cells (KRAS G12A) [2]; Homo sapiens, NCI-H1573) was ≤ 100 nM, the IC50 (KP-2 cells (KRAS G12R) [3]) was ≤ 100 nM and the IC50 (H1573 cells (KRAS G12A) [4]; Homo sapiens, NCI-H1573) was ≤ 100 nM. The IC50 (A549 cells (KRAS G12S); Homo sapiens) was ≤ 100 nM and the IC50 (HT1080 cells (NRAS); Homo sapiens, HT-1080) was > 1000 nM.

CN(c1nc(OC[C@@]23CCCN2C[C@H](F)C3)nc2c(F)c(-c3ccc(F)c4sc(N)c(C#N)c34)c(C(F)(F)F)cc12)[C@H]1C[C@@H](O)C1 [Compound 19, 2-amino-7-fluoro-4-((S)-8-fluoro-2-(((2R,7aS)-2-fluorotetrahydro-1H-pyrrolizin-7a(5H)-yl)methoxy)-4-(((1s,3R)-3-hydroxycyclobutyl)(methyl)amino)-6-(trifluoromethyl)quinazolin-7-yl)benzo[b]thiophene-3-carbonitrile] was tested, and the IC50 (HCT116 cells (KRAS G13D)) was ≤ 100 nM, the IC50 (H1573 cells (KRAS G12A) [2]) was ≤ 100 nM and the IC50 (H1573 cells (KRAS G12A) [4]) was ≤ 100 nM. For the same molecule, the IC50 (A549 cells (KRAS G12S)) was 100 to 1000 nM and the IC50 (HT1080 cells (NRAS)) was > 1000 nM.

With CCC(=O)N1C[C@@H](N(CC)c2nc(OC[C@@]34CCCN3C[C@H](F)C4)nc3c(F)c(-c4ccc(F)c5sc(N)c(C#N)c45)c(C(F)(F)F)cc23)C[C@H]1C [Compound 442] the IC50 (AsPC-1 cells (KRAS G12D); [5]) was 100 to 1000 nM, the IC50 (HCT116 cells (KRAS G13D); Homo sapiens, HCT-116) was ≤ 100 nM and the IC50 (KP-2 cells (KRAS G12R) [1]) was 100 to 1000 nM. It also gave an IC50 (H1573 cells (KRAS G12A) [2]; Homo sapiens, NCI-H1573) of 100 to 1000 nM, an IC50 (KP-2 cells (KRAS G12R) [3]) of 100 to 1000 nM and an IC50 (H1573 cells (KRAS G12A) [4]; Homo sapiens, NCI-H1573) of 100 to 1000 nM. The IC50 (A549 cells (KRAS G12S); Homo sapiens) was 100 to 1000 nM and the IC50 (HT1080 cells (NRAS); Homo sapiens, HT-1080) was > 1000 nM.

CCN(c1nc(OC[C@@]23CCCN2C[C@H](F)C3)nc2c(F)c(-c3ccc(F)c4sc(N)c(C#N)c34)c(C(F)(F)F)cc12)[C@H]1CCN(C(=O)C(C)C)C1 [Compound 332] was tested, and the IC50 (AsPC-1 cells (KRAS G12D); AsPC-1 (KRAS G12D) cells) was ≤ 100 nM, the IC50 (HCT116 cells (KRAS G13D); Homo sapiens, HCT-116) was ≤ 100 nM and the IC50 (KP-2 cells (KRAS G12R) [1]) was ≤ 100 nM. For the same molecule, the IC50 (H1573 cells (KRAS G12A) [2]; Homo sapiens, NCI-H1573) was ≤ 100 nM, the IC50 (KP-2 cells (KRAS G12R) [3]) was ≤ 100 nM and the IC50 (H1573 cells (KRAS G12A) [4]; Homo sapiens, NCI-H1573) was ≤ 100 nM. For the same molecule, the IC50 (A549 cells (KRAS G12S); Homo sapiens) was ≤ 100 nM and the IC50 (HT1080 cells (NRAS); Homo sapiens, HT-1080) was > 1000 nM.

For CCN(c1nc(OC[C@@]23CCCN2C[C@H](F)C3)nc2c(F)c(-c3ccc(F)c4sc(N)c(C#N)c34)c(C(F)(F)F)cc12)[C@H]1C[C@H](C)N(C(C)=O)C1 [Compound 463], the IC50 (AsPC-1 cells (KRAS G12D); [5]) was 100 to 1000 nM and the IC50 (HT1080 cells (NRAS); Homo sapiens, HT-1080) was > 1000 nM.

With C[C@@H]1[C@H](N(C)c2nc(OC[C@@]34CCCN3C[C@H](F)C4)nc3c(F)c(-c4ccc(F)c5sc(N)c(C#N)c45)c(C(F)(F)F)cc23)CCN1C(=O)C1CC1 [Compound 258] the IC50 (HCT116 cells (KRAS G13D); Homo sapiens, HCT-116) was ≤ 100 nM, the IC50 (H1573 cells (KRAS G12A) [2]; Homo sapiens, NCI-H1573) was ≤ 100 nM and the IC50 (H1573 cells (KRAS G12A) [4]; Homo sapiens, NCI-H1573) was ≤ 100 nM. For the same molecule, the IC50 (A549 cells (KRAS G12S); Homo sapiens) was ≤ 100 nM and the IC50 (HT1080 cells (NRAS); Homo sapiens, HT-1080) was > 1000 nM.

With CN(Cc1cccnc1N)c1nc(OC[C@@]23CCCN2C[C@H](F)C3)nc2c(F)c(-c3ccc(F)c4sc(N)c(C#N)c34)c(C(F)(F)F)cc12 [Compound 390] the IC50 (AsPC-1 cells (KRAS G12D); [5]) was ≤ 100 nM and the IC50 (HT1080 cells (NRAS); Homo sapiens, HT-1080) was > 1000 nM.
